Values of other authors in article PMC11261219 (Clinical and Molecular Hepatology, 2024).

How the values were obtained:
HBV = settings: after 3 years
HBV DNA and HBV RNA = settings: added to patients taking NUCs, versus NUCs alone

## pegylated interferon [pegIFN]
HBV
  functional cure, patients: approximately 11%

## O=C(NCc1cnc(C(F)(F)F)s1)c1ccc2c(c1)NC(=O)c1ccccc1S2(=O)=O [vebicorvir]
HBV DNA and HBV RNA
  suppression of HBV DNA and HBV RNA: further suppressed HBV DNA and HBV RNA more than with NUCs alone
